Results published in patent publication US20250041312A1, “METHODS OF ADMINISTERING A MODULATOR OF HEMOGLOBIN” (Global Blood Therapeutics, Inc., priority 2021, published 2025).
Read-outs that look alike come from different tables or passages of the source.

Assay: SAD study in healthy volunteers: PK in plasma, whole blood, red blood cells
Assay type: in vivo, human
Settings: for Cmax / AUC(0-t) / half-life / Kp / blood plasma ratio: human; for Kp: red blood cells and plasma; for Kp / blood plasma ratio: HV, dose range of 50 to 2200 mg; for blood plasma ratio: whole blood and plasma
Description: To evaluate the safety and tolerability of single ascending doses of Compound I, 48 healthy volunteers (42 in the fasted state and 6 in the fed state) aged 18 to 55 years old were administered single ascending doses (50 mg to 2200 mg) of Compound I, while 16 healthy volunteers (14 in the fasted state and 2 in the fed state) aged 18 to 55 years old were administered placebo in a double blind, randomized, sequential manner.
Whole blood pharmacokinetic (PK) parameters, using actual sample collection times, and hemoglobin occupancy after single ascending dose are shown in Table 5 (containing data from both healthy volunteers and SCD subjects) and Table 6 (containing data from only healthy volunteer subjects).

## O=Cc1c(O)cccc1OC[C@@H]1COCCN1C(=O)c1cccnc1CCO [Compound I, (S)-2-hydroxy-6-((4-(2-(2-hydroxyethyl)nicotinoyl)morpholin-3-yl)methoxy)benzaldehyde]
HV single 50 mg
  B:P ratio (mean AUC0-t blood:mean AUC0-t plasma): 220
HV single 100 mg
  B:P ratio (mean AUC0-t blood:mean AUC0-t plasma): 214
HV single 200 mg
  B:P ratio (mean AUC0-t blood:mean AUC0-t plasma): 206
HV single 400 mg
  B:P ratio (mean AUC0-t blood:mean AUC0-t plasma): 185
Healthy subjects n=6, single 100 mg
  B:P ratio AUC0-inf: 216
plasma, 100 mg, healthy volunteers n=6, single 100 mg, geometric mean
  Cmax: 714 ng/mL
plasma, 100 mg, healthy volunteers n=6, single 100 mg, plasma, geometric mean, read-out: AUC0-t
  AUC(0-t): 68.7 µg·h/mL
plasma, 100 mg, healthy volunteers n=6, single 100 mg, plasma, geometric mean, read-out: t½ (converted)
  half-life: 25.6 days
plasma, po, 50 mg, HV single oral 50 mg (Cohort 1), geometric mean
  Cmax: 400 ng/mL
plasma, po, 50 mg, HV single oral 50 mg (Cohort 1), plasma, geometric mean, read-out: AUClast
  AUC(0-t): 31.1 µg·h/mL
plasma, po, 50 mg, HV single oral 50 mg (Cohort 1), plasma, geometric mean, read-out: t1/2 (converted)
  half-life: 28.7 days
plasma, po, 100 mg, HV single oral 100 mg (Cohort 2), geometric mean
  Cmax: 714 ng/mL
plasma, po, 100 mg, HV single oral 100 mg (Cohort 2), plasma, geometric mean, read-out: AUClast
  AUC(0-t): 68.7 µg·h/mL
plasma, po, 100 mg, HV single oral 100 mg (Cohort 2), plasma, geometric mean, read-out: t1/2 (converted)
  half-life: 25.6 days
plasma, po, 200 mg, HV single oral 200 mg (Cohort 3), geometric mean
  Cmax: 1290 ng/mL
plasma, po, 200 mg, HV single oral 200 mg (Cohort 3), plasma, geometric mean, read-out: AUClast
  AUC(0-t): 135 µg·h/mL
plasma, po, 200 mg, HV single oral 200 mg (Cohort 3), plasma, geometric mean, read-out: t1/2 (converted)
  half-life: 30.8 days
plasma, po, 400 mg, HV single oral 400 mg (Cohort 5), geometric mean
  Cmax: 3190 ng/mL
plasma, po, 400 mg, HV single oral 400 mg (Cohort 5), plasma, geometric mean, read-out: AUClast
  AUC(0-t): 331 µg·h/mL
plasma, po, 400 mg, HV single oral 400 mg (Cohort 5), plasma, geometric mean, read-out: t1/2 (converted)
  half-life: 26 days
plasma, po, 800 mg, HV single oral 800 mg (Cohort 6), geometric mean
  Cmax: 4250 ng/mL
plasma, po, 800 mg, HV single oral 800 mg (Cohort 6), plasma, geometric mean, read-out: AUClast
  AUC(0-t): 609 µg·h/mL
plasma, po, 800 mg, HV single oral 800 mg (Cohort 6), plasma, geometric mean, read-out: t1/2 (converted)
  half-life: 20.7 days
plasma, po, 1400 mg, HV single oral 1400 mg (Cohort 7), geometric mean
  Cmax: 7780 ng/mL
plasma, po, 1400 mg, HV single oral 1400 mg (Cohort 7), plasma, geometric mean, read-out: AUClast
  AUC(0-t): 1030 µg·h/mL
plasma, po, 1400 mg, HV single oral 1400 mg (Cohort 7), plasma, geometric mean, read-out: t1/2 (converted)
  half-life: 21.4 days
plasma, po, 2200 mg, HV single oral 2200 mg (Cohort 8), geometric mean
  Cmax: 9300 ng/mL
plasma, po, 2200 mg, HV single oral 2200 mg (Cohort 8), plasma, geometric mean, read-out: AUClast
  AUC(0-t): 1360 µg·h/mL
plasma, po, 2200 mg, HV single oral 2200 mg (Cohort 8), plasma, geometric mean, read-out: t1/2 (converted)
  half-life: 22.1 days
read-out: mean RBC to plasma ratio for AUCinf
  Kp: 420 to 530
read-out: mean RBC to plasma ratio for Cmax
  Kp: 49 to 99
Red blood cells, po, 50 mg, HV single oral 50 mg (Cohort 1), red blood cells (calculated conc.), geometric mean, read-out: AUClast
  AUC(0-t): 16500 µg·h/mL
Red blood cells, po, 50 mg, HV single oral 50 mg (Cohort 1), red blood cells (calculated conc.), geometric mean, read-out: t1/2 (converted)
  half-life: 28.3 days
Red blood cells, po, 50 mg, HV single oral 50 mg (Cohort 1), red blood cells (conc. calculated from blood, plasma, hematocrit), geometric mean
  Cmax: 19300 ng/mL
Red blood cells, po, 100 mg, HV single oral 100 mg (Cohort 2), red blood cells (calculated conc.), geometric mean
  Cmax: 41700 ng/mL
Red blood cells, po, 100 mg, HV single oral 100 mg (Cohort 2), red blood cells (calculated conc.), geometric mean, read-out: AUClast
  AUC(0-t): 34500 µg·h/mL
Red blood cells, po, 100 mg, HV single oral 100 mg (Cohort 2), red blood cells (calculated conc.), geometric mean, read-out: t1/2 (converted)
  half-life: 29 days
Red blood cells, po, 200 mg, HV single oral 200 mg (Cohort 3), red blood cells (calculated conc.), geometric mean
  Cmax: 76900 ng/mL
Red blood cells, po, 200 mg, HV single oral 200 mg (Cohort 3), red blood cells (calculated conc.), geometric mean, read-out: AUClast
  AUC(0-t): 64400 µg·h/mL
Red blood cells, po, 200 mg, HV single oral 200 mg (Cohort 3), red blood cells (calculated conc.), geometric mean, read-out: t1/2 (converted)
  half-life: 28.1 days
Red blood cells, po, 400 mg, HV single oral 400 mg (Cohort 5), red blood cells (calculated conc.), geometric mean
  Cmax: 210000 ng/mL
Red blood cells, po, 400 mg, HV single oral 400 mg (Cohort 5), red blood cells (calculated conc.), geometric mean, read-out: AUClast
  AUC(0-t): 151000 µg·h/mL
Red blood cells, po, 400 mg, HV single oral 400 mg (Cohort 5), red blood cells (calculated conc.), geometric mean, read-out: t1/2 (converted)
  half-life: 25.2 days
Red blood cells, po, 800 mg, HV single oral 800 mg (Cohort 6), red blood cells (calculated conc.), geometric mean
  Cmax: 351000 ng/mL
Red blood cells, po, 800 mg, HV single oral 800 mg (Cohort 6), red blood cells (calculated conc.), geometric mean, read-out: AUClast
  AUC(0-t): 247000 µg·h/mL
Red blood cells, po, 800 mg, HV single oral 800 mg (Cohort 6), red blood cells (calculated conc.), geometric mean, read-out: t1/2 (converted)
  half-life: 26 days
Red blood cells, po, 1400 mg, HV single oral 1400 mg (Cohort 7), red blood cells (calculated conc.), geometric mean
  Cmax: 543000 ng/mL
Red blood cells, po, 1400 mg, HV single oral 1400 mg (Cohort 7), red blood cells (calculated conc.), geometric mean, read-out: AUClast
  AUC(0-t): 455000 µg·h/mL
Red blood cells, po, 1400 mg, HV single oral 1400 mg (Cohort 7), red blood cells (calculated conc.), geometric mean, read-out: t1/2 (converted)
  half-life: 27.4 days
Red blood cells, po, 2200 mg, HV single oral 2200 mg (Cohort 8), red blood cells (calculated conc.), geometric mean
  Cmax: 910000 ng/mL
Red blood cells, po, 2200 mg, HV single oral 2200 mg (Cohort 8), red blood cells (calculated conc.), geometric mean, read-out: AUClast
  AUC(0-t): 626000 µg·h/mL
Red blood cells, po, 2200 mg, HV single oral 2200 mg (Cohort 8), red blood cells (calculated conc.), geometric mean, read-out: t1/2 (converted)
  half-life: 24.6 days
read-out: mean blood to plasma ratio for AUCinf
  blood plasma ratio: 177 to 219
read-out: mean blood to plasma ratio for Cmax
  blood plasma ratio: 20 to 42
Whole blood, 50 mg, HV single 50 mg, mean
  Cmax: 8100 ng/mL
Whole blood, 50 mg, HV single 50 mg, whole blood, mean, read-out: AUC0-t
  AUC(0-t): 6900 µg·h/mL
Whole blood, 50 mg, HV single 50 mg, whole blood, mean, read-out: t1/2 (converted)
  half-life: 28.9 days
Whole blood, 100 mg, HV single 100 mg, mean
  Cmax: 17400 ng/mL
Whole blood, 100 mg, HV single 100 mg, whole blood, mean, read-out: AUC0-t
  AUC(0-t): 14400 µg·h/mL
Whole blood, 100 mg, HV single 100 mg, whole blood, mean, read-out: t1/2 (converted)
  half-life: 29.8 days
Whole blood, 100 mg, healthy subjects n=6, single 100 mg, blood, geometric mean
  Cmax: 17300 ng/mL
Whole blood, 100 mg, healthy subjects n=6, single 100 mg, blood, geometric mean, read-out: AUC0-t
  AUC(0-t): 14300 µg·h/mL
Whole blood, 100 mg, healthy subjects n=6, single 100 mg, blood, geometric mean, read-out: t½ (converted)
  half-life: 29.1 days
Whole blood, 200 mg, HV single 200 mg, mean
  Cmax: 35800 ng/mL
Whole blood, 200 mg, HV single 200 mg, whole blood, mean, read-out: AUC0-t
  AUC(0-t): 29300 µg·h/mL
Whole blood, 200 mg, HV single 200 mg, whole blood, mean, read-out: t1/2 (converted)
  half-life: 28.4 days
Whole blood, 400 mg, HV single 400 mg, mean
  Cmax: 88100 ng/mL
Whole blood, 400 mg, HV single 400 mg, whole blood, mean, read-out: AUC0-t
  AUC(0-t): 61900 µg·h/mL
Whole blood, 400 mg, HV single 400 mg, whole blood, mean, read-out: t1/2 (converted)
  half-life: 25.8 days
Whole blood, 800 mg, HV single 800 mg, mean
  Cmax: 149000 ng/mL
Whole blood, 800 mg, HV single 800 mg, whole blood, mean, blood collected up to day 42, read-out: AUC0-t
  AUC(0-t): 74300 µg·h/mL
Whole blood, 1400 mg, HV single 1400 mg, mean
  Cmax: 231000 ng/mL
Whole blood, 1400 mg, HV single 1400 mg, whole blood, mean, blood collected up to day 42, read-out: AUC0-t
  AUC(0-t): 137000 µg·h/mL
